pIC50: −log10 of the molar value.

The text below walks through data of patent publication US5691340A, “Benzopyran derivatives” (Adir et Compagnie, priority 1994, dated 1997).

The test system of data set [1] is σ receptors. The settings on record: cited from earlier work.
In data set [2] the test system is man. The conditions noted are these: in vivo; cited from earlier work.
Data set [3] deals with T1, σ1 receptor (Cavia porcellus, UniProt Q60492).
T1 construct: Guinea pig brain; from tissue; host or cells: guinea pig brain
T1 sequence (Q60492 whole entry): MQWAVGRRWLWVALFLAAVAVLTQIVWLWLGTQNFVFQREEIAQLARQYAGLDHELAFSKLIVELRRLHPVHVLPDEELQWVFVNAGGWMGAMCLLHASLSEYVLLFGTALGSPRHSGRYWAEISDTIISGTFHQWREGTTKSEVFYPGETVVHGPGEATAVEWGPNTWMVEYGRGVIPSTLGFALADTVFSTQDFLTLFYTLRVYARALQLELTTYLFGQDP
Put plainly: In vitro binding to σ1 receptors ([3H]-Pentazocine). Also noted: species or system guinea pig. The protocol:
(§1) The products are tested on each receptor at 5 different concentrations (10^-5 M, 10^-6 M, 10^-7 M, 10^-8 M and 10^-9 M) in triplicate. When the binding coefficient IC50 (concentration of product which displaces 50% of the radioligand) is less than a concentration of 10^-6 M, the Ki is measured by using 12 concentrations of the product.
(§2) The receptors for which the affinity of the compounds of the invention was determined, the tissue chosen, the concentration used for determining the non-specific fraction and the radioligand used to label the receptor are shown in Table A.

Data set [4] concerns the target T2, σ2 receptor (Cavia porcellus, UniProt H0V073).
T2 construct: Guinea pig brain; from tissue; host or cells: guinea pig brain
T2 sequence (H0V073 1-176): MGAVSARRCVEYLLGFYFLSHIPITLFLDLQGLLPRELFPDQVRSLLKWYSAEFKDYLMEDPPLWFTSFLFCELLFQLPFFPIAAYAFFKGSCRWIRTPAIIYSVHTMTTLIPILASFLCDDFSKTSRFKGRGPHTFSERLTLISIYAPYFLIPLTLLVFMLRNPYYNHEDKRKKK
The experiment in a line: In vitro binding to σ2 receptors ([3H]-DTG). Further details: species or system guinea pig. The protocol:
as §1, §2

For data set [5], the system named is hyperactivity induced by N-allylnormetazocine. Put plainly: Antagonism of the hyperactivity induced by N-allylnormetazocine. The class given is in vivo. The settings on record: 32 mg.kg^-1, rats; N-allylnormetazocine 50 mg/kg subcutaneous. The protocol:
This test was developed by Snyder S. H. et al. (J. Neuropsychiatry, 1989, 1,7-15).
Measurement of the hyperactivity induced by this product is therefore used as an alternative model for detecting the antipsychotic activity of the compounds which have an effect on σ receptors.
A group of 12 rats is treated with the compound to be tested before subcutaneous administration of 50 mg/kg of N-allylnormetazocine. 30 minutes later, the animals are placed in an activity cage for 30 minutes.
Haloperidol is used as reference compound.

Data set [6] has as its system hypermotility induced by amphetamine. Put plainly: Antagonism of hypermotility induced by amphetamine. The conditions noted are these: 64 mg/kg, IP, mice; d-amphetamine 4 mg.kg^-1 IP. The class given is in vivo, NMRI-CERJ mice. The protocol:
This test was developed by Costall B., et al. (Brain Research, 1977, 123, 89-111).
Groups of 10 NMRI-CERJ mice are injected intraperitoneally (IP) with 4 mg.kg^-1 of d-amphetamine immediately after the compound to be tested (also injected by the IP route) and the mice are placed in an activity cage for 30 minutes.
The number of interruptions of photoelectric cells is recorded, as well as the stereotypical behavior.
The activity of the tested compounds is expressed as percentage of antagonism of the hyperactivity induced by amphetamine.

Data set [7] deals with σ receptor. Put plainly: In vitro binding to σ receptors ([3H]-DTG or [3H]-3-PPP). Further details: species or system calf. The settings on record: [3H]-DTG. The protocol: as §1, §2
10^-6 M Calf hippocampus

Take `C=CCN1CCC2(C)c3cc(O)ccc3CC1C2C` (single isomer, unassigned) [N-Allylnormetazocine]: the “agonism at σ receptors” value in data set [1] is listed as “prototype agonist for σ receptors”. In data set [2], the “psychotic behavior in man” value is recorded as “induces psychotic behavior in man”.

In the case of `CC(CN1CCN(Cc2ccccc2)CC1)Oc1ccccc1` (stereo not shown) [Example 9, 1-(2-PHENOXYPROPYL)-4-BENZYLPIPERAZINE], the pIC50 in data set [3] is 8.89; in data set [4] it was 7.40. In addition, in data set [5], the “antagonism of the hypermotility induced by N-allylnormetazocine” value stood at 42%.

With `Fc1ccc2c(c1)CC(CN1CCN(Cc3ccccc3)CC1)O2` (stereo not shown) [Example 1, 1-[(5-FLUORO-2,3-DIHYDROBENZOFUR-2-YL) METHYL]-4-BENZYLPIPERAZINE], the “percentage of antagonism of the hyperactivity induced by amphetamine” value in data set [6] is given as 43%. This molecule also had a pIC50 in data set [7] of 8.04.

`COc1ccc2c(CN3CCN(Cc4ccccc4)CC3)cc(=O)oc2c1` [Example 3, 1-[(7-METHOXY-2-OXOCHROM-3-EN-4-YL) METHYL]-4-BENZYLPIPERAZINE] gave a pIC50 in data set [7] of 8.89.

In the case of `c1ccc(CN2CCN(CC3Cc4ccccc4O3)CC2)cc1` (stereo not shown) [Example 4, 1-[(2,3-DIHYDROBENZOFUR-2-YL) METHYL]-4-BENZYLPIPERAZINE], the “percentage of antagonism of the hyperactivity induced by amphetamine” value in data set [6] was determined as 61%. The molecule further had a pIC50 in data set [7] of 8.15.
